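Method: 48-hour compound exposure of cells in 96-well plates, five concentrations, linear interpolation of endpoints. GI50: concentration for 50% inhibition of growth. The concentration for full growth arrest is given as TGI.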
Key:
Test in all cases: NCI anticancer screen, dose series, 48 h
CAKI-1 renal = test system: CAKI-1 renal
DU-145 prostate = test system: DU-145 prostate
K-562 leukemia = test system: K-562 leukemia
M14 melanoma = test system: M14 melanoma
MALME-3M melanoma = test system: MALME-3M melanoma
NCI/ADR-RES ovarian = test system: NCI/ADR-RES ovarian
OVCAR-3 ovarian = test system: OVCAR-3 ovarian
OVCAR-8 ovarian = test system: OVCAR-8 ovarian
SF-268 CNS = test system: SF-268 CNS
UO-31 renal = test system: UO-31 renal

| Structure (SMILES) | GI50 (CAKI-1 renal) [µM] | TGI (CAKI-1 renal) [µM] | GI50 (DU-145 prostate) [µM] | TGI (DU-145 prostate) [µM] | GI50 (K-562 leukemia) [µM] | TGI (K-562 leukemia) [µM] | GI50 (M14 melanoma) [µM] | TGI (M14 melanoma) [µM] | GI50 (MALME-3M melanoma) [µM] | TGI (MALME-3M melanoma) [µM] | GI50 (NCI/ADR-RES ovarian) [µM] | TGI (NCI/ADR-RES ovarian) [µM] | GI50 (OVCAR-3 ovarian) [µM] | TGI (OVCAR-3 ovarian) [µM] | GI50 (OVCAR-8 ovarian) [µM] | TGI (OVCAR-8 ovarian) [µM] | GI50 (SF-268 CNS) [µM] | TGI (SF-268 CNS) [µM] | GI50 (UO-31 renal) [µM] | TGI (UO-31 renal) [µM] |
| --- | --- | --- | --- | --- | --- | --- | --- | --- | --- | --- | --- | --- | --- | --- | --- | --- | --- | --- | --- | --- |
| COc1ccc2cc(C(=O)/C=C/c3ccc(N(C)C)cc3)ccc2c1 | 67.5 | > 100 | > 100 | > 100 | > 100 | > 100 | > 100 | > 100 | > 100 | > 100 | 49.8 | > 100 | > 100 | > 100 | > 100 | > 100 | 42.6 | > 100 | > 100 | > 100 |
| N#Cc1c(N2CCOCC2)nc(=S)[nH]c1-c1ccccc1 | 9.29 | > 100 | 31 | > 100 | 52 | > 100 | 19.9 | > 100 | 5.19 | 58.9 | 53.4 | > 100 | 16.9 | > 100 | 39.2 | > 100 | 33.5 | > 100 | 4.57 | > 100 |
| CCCc1cc(=O)n2c(C(=O)Nc3cccc(C(=O)OCC)c3)c(C(=O)Nc3ccc(F)cc3)sc2n1 | 4.95 | 28.2 | 58.8 | > 140 | 60.3 | > 140 | 9.6 | 86 | 13.1 | 58 | 22.3 | > 140 | 3.17 | 7.75 | 3.63 | 15 | 26.6 | 128 | 7.27 | 42.6 |
| CN1CCC2(CC1)NC(=O)c1c(c3ccc(Cl)c(Cl)c3n1C)C2C#N (centres undefined) | 4.31 | 21.3 | 6.01 | 15.2 | 5.76 | > 100 | 2.73 | 8.5 | 3.11 | 9.52 | 7.46 | 23 | 5.32 | 12.3 | 10.4 | 36.6 | 4.54 | 15.2 | 4.21 | 17.4 |
| CCN1C(=O)N(CC)C2C1NN=c1s/c(=C\c3ccco3)c(=O)n12 (centres undefined) | 0.468 | > 89.7 | 0.703 | > 100 | 0.311 | > 100 | 0.415 | > 35.5 | 2.15 | > 100 | 0.417 | > 100 | 0.334 | – | 1.43 | > 100 | 0.791 | > 100 | 0.852 | > 100 |
| CCCCCCCCCCCC(=O)N1CCN(C(C)=O)CC1 | 19.9 | 38.9 | 35 | > 100 | 22.9 | 59.7 | 17.6 | 33 | 26.9 | 52.9 | 25.9 | 72.6 | 27.6 | 95 | 29.3 | > 100 | 39.8 | > 100 | 18.7 | 42.6 |
